Measured values taken from patent US20050182025A1, “Amidinylphenyl compounds and their use as fungicides” (priority 2002, published 2005).

Assays:
Assay type in all cases: in vivo
[1] = system: Erysiphe graminis f. sp. tritici; assay: Test A: preventive spray on wheat seedlings, wheat powdery mildew, disease rating; conditions: wheat seedlings sprayed to run-off, inoculated the following day with Erysiphe graminis f. sp. tritici, rated after 7 days at 20° C.; test concentration not given
Procedure, shortened: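 Preventive test: Erysiphe graminis f. sp. tritici spore dust applied one day after run-off spraying of seedlings with acetone/water/surfactant suspension, 200 ppm equating to 500 g/ha. Plants held 7 days at 20 °C; ratings give % disease control versus controls, 100 full, 0 none.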

Puccinia recondita = assay: Test B: preventive spray on wheat seedlings, wheat leaf rust, disease rating; conditions: wheat seedlings sprayed to run-off, inoculated the following day with Puccinia recondita, 24 h saturated atmosphere then 6 days at 20° C.; test concentration not given
Procedure, shortened: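 Preventive test: seedlings inoculated with Puccinia recondita one day after run-off spraying with test suspension (acetone/water, 250 ppm Trem 014; 200 ppm equals 500 g/ha). Rating after 24 h at 20° C in saturation plus 6 days in 20° C growth chamber; 0–100 scale versus controls.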

Septoria nodorum = assay: Test C: preventive spray on wheat seedlings, Septoria glume blotch, disease rating; conditions: wheat seedlings sprayed to run-off, inoculated the following day with Septoria nodorum, 48 h saturated atmosphere then 9 days at 20° C.; test concentration not given
Procedure, shortened: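 Preventive test: one day after spraying (to run-off; 200 ppm ≈ 500 g/ha, in acetone/water with 250 ppm surfactant), seedlings received a S. nodorum spore suspension. After 48 h in saturated air and 9 days in a growth chamber, both at 20° C., % disease control versus controls was scored.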

Row | SMILES | Test A disease control rating (100 = 100% disease control, 0 = no disease control relative to the controls) [1] [%] | Test B disease control rating (100 = 100% disease control, 0 = no disease control relative to the controls) (Puccinia recondita) [%] | Test C disease control rating (100 = 100% disease control, 0 = no disease control relative to the controls) (Septoria nodorum) [%]
1 | CCCCC(C)Oc1cc(C)c(N=CN(C)C)cc1C (stereo not drawn) [Compound 18] | 98 | 100 | 98
2 | CCN(CC)C(=S)Nc1cc(C)c(OCCC[Si](C)(C)C)cc1C [compound 163] | 32 | 100 | 73
3 | Cc1c(NC(=S)N(C)C)cc(Cl)c(OCCC[Si](C)(C)C)c1Cl [compound 180] | 75 | 58 | 0
4 | Cc1cc(OCCC[Si](C)(C)C)c(Cl)cc1N=CN(C)C [compound 172] | 100 | 100 | 100
5 | Cc1c(N=CN(C)C)cc(Cl)c(OCCCC(C)C)c1Cl [compound 115] | 85 | 85 | 100
6 | CN(C)C=Nc1cc(Cl)c(OCCC[Si](C)(C)C)c(Cl)c1Cl [compound 55] | 0 | 19 | 0
7 | Cc1cc(OCCCC(C)(C)C)c(C)cc1N=CN(C)C [Compound 50] | 99 | 67 | 100
8 | CCCCC(CCCC)Nc1cc(C)c(N=CN(C)C)cc1C [compound 150] | 0 | 0 | 47
9 | CCN(C)C(=S)Nc1cc(C)c(OCCC[Si](C)(C)C)c(Cl)c1C [compound 134] | 100 | 100 | 81
10 | CCC(CCC(C)C)Oc1cc(C)c(N=C(C)N(C)C)cc1C (stereo not drawn) [compound 100] | 0 | 86 | 76
11 | CCN(C)C=Nc1cc(Cl)c(OC(C)CCC(C)C)cc1C (stereo not drawn) [compound 198] | 100 | 100 | 100
12 | CCN(CC)C(=S)Nc1cc(Cl)c(OCCC[Si](C)(C)C)cc1Cl [compound 185] | 99 | 98 | 63
13 | CCN(CC)C(=S)Nc1cc(Cl)c(OCCCC(C)C)cc1C [compound 113] | 91 | 99 | 100
14 | CCN(C)C(=S)Nc1cc(Cl)c(OCCCC(C)C)cc1Cl [compound 125] | 96 | 97 | 100
15 | CCCC(CCC)Sc1cc(C)c(N=CN(C)C)cc1C [compound 157] | 0 | 96 | 99
16 | CC(=Nc1cc(Cl)c(OCCC[Si](C)(C)C)cc1C)N(C)C [compound 173] | 32 | 90 | 99

Row | SMILES | Test A disease control rating (100 = 100% disease control, 0 = no disease control relative to the controls) [1] [%] | Test B disease control rating (100 = 100% disease control, 0 = no disease control relative to the controls) (Puccinia recondita) [%] | Test C disease control rating (100 = 100% disease control, 0 = no disease control relative to the controls) (Septoria nodorum) [%]
17 | Cc1cc(SC(C)CCC(C)C)c(C)cc1N=CN(C)C (stereo not drawn) [compound 105] | 97 | 100 | 98
18 | Cc1cc(SC(CCC(C)C)CCC(C)C)c(C)cc1N=CN(C)C [compound 159] | 94 | 100 | 47
19 | Cc1cc(OCCCC(C)(C)O)c(C)cc1N=CN(C)C [Compound 45] | 0 | 80 | 0
20 | C=CCN(C)C(=S)Nc1cc(C)c(OCCC[Si](C)(C)C)cc1C [compound 86] | 100 | 99 | 100
21 | CC(=Nc1cc(C)c(OCCCC(C)C)cc1C)N(C)C [compound 96] | 0 | 100 | 100
22 | CCN(C)C(=S)Nc1cc(Cl)c(OCCC[Si](C)(C)C)c(Cl)c1C [compound 181] | 100 | 100 | 67
23 | CC(C)CCCOc1cc(Cl)c(N=CN(C)C)cc1Cl [compound 126] | 95 | 40 | 100
24 | CCN(CC)C(=S)Nc1cc(Cl)c(OCCC[Si](C)(C)C)c(Cl)c1C [compound 179] | 20 | 23 | 0
25 | C=C(COc1cc(C)c(N=CN(C)C)cc1C)C[Si](C)(C)C [Compound 38] | 96 | 100 | 20
26 | CCN(C)C(=Nc1cc(Cl)c(OCCC[Si](C)(C)C)cc1C)C(=O)OC [compound 129] | 100 | 100 | 67
27 | CCN(CC)C(=S)Nc1cc(Cl)c(OCCCC(C)(C)C)cc1C [compound 120] | 91 | 8 | 0
28 | CCN(C)C=Nc1cc(C)c(OCCCC(C)C)c(Cl)c1C [compound 200] | 100 | 100 | 100
29 | CCN(C)C=Nc1cc(C)c(OCCC[Si](C)(C)C)cc1C [compound 196] | 100 | 100 | 100
30 | CC(C)=CCCC(C)=CCOc1cc(C)c(N=CN(C)C)cc1C [Compound 2] | 95 | 100 | 36
31 | Cc1cc(OC(C)CCC(C)C)c(C)cc1N=CN(C)C (stereo not drawn) [Compound 32] | 97 | 100 | 95
32 | CCC[Si](C)(C)CCCOc1cc(C)c(N=CN(C)C)cc1C [Compound 52] | 100 | 100 | 99
